Legend:
5-HT1D receptor = molecular target: T1, 5-HT1D receptor (Bos taurus, UniProt F1MGM3); test: [3H]5-HT binding to 5-HT1D sites in caudate nuclei membranes; settings: bovine caudate membranes, [3H]5-HT 1.7-1.9 nM, pH 7.4, 37° C
T1 construct: the caudate nuclei were dissected out and frozen at -70° C; tissue Pel-Freeze Biologicals; host or cells: bovine caudate nuclei, washed membranes
Method: The affinities of the compounds at the central 5-HT1D binding sites were determined using a modification of the binding assay described by Heuring and Peroutka (J. Neurosci. 7:894-903, 1987). Bovine brains were obtained from Pel-Freeze Biologicals, and the caudate nuclei were dissected out and frozen at -70° C. until the time that the membranes were prepared for the binding assays. At that time the tissues were homogenized in 40 volumes of ice-cold Tris-HCl buffer (50 mM, pH 7.4 at 22° C.) with a Techmar Tissumizer (setting 65 for 15 sec), and the homogenate was centrifuged at 39,800 g for 10 min. The resulting pellet was then resuspended in the same buffer, and the centrifugation and resuspension process was repeated three additional times to wash the membranes. Between the second and third washes the resuspended membranes were incubated for 10 min at 37° C. to facilitate the removal of endogenous 5-HT. the final pellet was resuspended in Tris buffer to a concentration of 25 mg of original tissue wet weight/ml for use in the binding assay. […] The assay tubes were incubated for 10 min at 37° C., and the contents were then rapidly filtered through GF/B filters (pretreated with 0.5% polyethylenimine), followed by four one-mL washes with ice-cold buffer. The radioactivity trapped by the filters was quantitated by liquid scintillation spectrometry, and specific [^3 H]5-HT binding to the 5HT1D sites were defined as the difference between [^3 H]5-HT bound in the presence and absence of 10 μM 5-HT.
The affinities of compounds at the 5-HT1D receptor are expressed as IC50 values, i.e., the concentration required to inhibit 50% of the binding. These values were determined from 12-point competition curves using nonlinear regression (SYSTAT, SYSTAT, Inc. Evanston, Ill.).

rats = test: death of treated rats in the in vivo 5-hydroxyindole/corticosterone experiment; parameters: species or system rat (male albino); settings: 3 mg/kg s.c.
Method: In another experiment certain compounds of the Examples were evaluated to determine ability to affect the 5-hydroxyindoles serotonin and 5-hydroxyindole acetic acid (5HIAA), and serum corticosterone, in vivo. Male albino rats were injected subcutaneously with an aqueous solution of the compound. The pH of the solution was adjusted as necessary to solubilize the compound. A control of the solution without the test compound was similarly injected into a control animal. The rats were decapitated one hour later. Trunk blood was collected and allowed to clot. After centrifugation, serum was stored frozen prior to analysis. The whole brain was removed and frozen on dry ice for storage prior to analysis. The serum corticosterone concentration was measured spectrofluorometrically using the procedure of Solem and Brinck-Johnson, "An Evaluation of a Method for Determination of Free Corticosteroids in Minute Quantities of Mouse Plasma", Scand. J. Clin. Lab. Invest., Suppl. 80, p. 1-14 (1965), incorporated herein by reference. 5-Hydroxyindoleacetic acid (5HIAA) concentration in whole brain was measured by liquid chromatography with electrochemical detection as reported by Fuller and Perry, "Effects of Buspirone and its Metabolite, 1-(2-pyrimidinyl)piperazine, on Brain Monoamines and Their Metabolites in Rats", J. Pharmacol. Exp. Ther., 248, p. 50-56 (1989), incorporated herein by reference.

serotonin = test: whole brain serotonin concentration in vivo in rats; parameters: species or system rat (male albino); settings: 5 hrs before sacrifice

T1 sequence (F1MGM3 1-403): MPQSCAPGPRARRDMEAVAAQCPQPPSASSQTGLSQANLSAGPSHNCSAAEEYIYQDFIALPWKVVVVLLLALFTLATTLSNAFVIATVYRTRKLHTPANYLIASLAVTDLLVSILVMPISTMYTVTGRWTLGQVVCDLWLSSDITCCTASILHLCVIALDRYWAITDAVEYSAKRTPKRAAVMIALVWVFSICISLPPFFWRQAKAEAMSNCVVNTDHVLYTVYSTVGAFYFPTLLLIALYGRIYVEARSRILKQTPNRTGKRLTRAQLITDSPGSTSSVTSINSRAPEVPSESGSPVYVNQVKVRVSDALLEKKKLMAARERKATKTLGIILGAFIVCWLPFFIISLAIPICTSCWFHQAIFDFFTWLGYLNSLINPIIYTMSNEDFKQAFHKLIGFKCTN

| SMILES | IC50 (5-HT1D receptor) | death of treated rats (rats) | Serotonin (serotonin; 0.1 mg/kg orally) | Serotonin (serotonin; 0.3 mg/kg orally) | Serotonin (serotonin; 1 mg/kg orally) | Serotonin (serotonin; 3 mg/kg orally) |
| --- | --- | --- | --- | --- | --- | --- |
| CCCN(CCC)C1Cc2c[nH]c3ccc(C(C)=O)c(c23)C1 (racemic) [Example 2, (±)-6-Acetyl-4-(di-n-propylamino)-1,3,4,5-tetrahydrobenz[cd]indole] | 18.4 nM | – | – | – | – | – |
| CCCN(CCC)[C@H]1Cc2c[nH]c3ccc(C(C)=O)c(c23)C1 [Example 7, (4R)-(+)-6-acetyl-4-(di-n-propylamino)-1,3,4,5-tetrahydrobenz[cd]indole] | 7.46 nM | dead within one hour | – | – | – | – |
| CCCN(CCC)[C@@H]1Cc2c[nH]c3ccc(C(C)=O)c(c23)C1 [Example 8, (4S)-(-)-6-acetyl-4-(di-n-propylamino)-1,3,4,5-tetrahydrobenz[cd]indole] | 96.4 nM | – | 2.77 ± 0.07 nmol/g | 2.47 ± 0.07 nmol/g | 2.86 ± 0.07 nmol/g | 2.68 ± 0.11 nmol/g |
| CCCN(CCC)[C@H]1Cc2c[nH]c3ccc(C(=O)C(C)C)c(c23)C1 [Example 9, (4R)-(+)-6-(2-methylpropanoyl)-4-(di-n-propylamino)-1,3,4,5-tetrahydrobenz[cd]indole] | 1.27 nM | – | – | – | – | – |

— patent publication US5229409A, “6-substituted-tetrahydrobenz[cd]indoles” (Eli Lilly and Company, priority 1991, dated 1993)
